What was measured:
[1] = Fluorescence emission maximum (Em. max) of the fluorochrome in solvent; assay type: physicochemical
[2] = Absorption maximum (Abs. max) of the fluorochrome in solvent; assay type: physicochemical

SMILES: CN1C2CCC1/C(=C\C=C1\N(CCCCS(=O)(=O)O)c3ccccc3C1(C)C)C(Cl)=C2/C=C/C1=[N+](CCCCS(=O)(=O)O)c2ccccc2C1(C)C (centres unmarked) [Compound 11]
- Em. max ([1]; MeOH): 790 nm
- Em. max ([1]; water): 775 nm
- Abs. max ([2]; MeOH): 770 nm
- Abs. max ([2]; water): 760 nm

SMILES: CN1C2CCC1/C(=C\C=C1\N(CCCCS(=O)(=O)O)c3ccccc3C1(C)C)C(SCCC(=O)O)=C2/C=C/C1=[N+](CCCCS(=O)(=O)O)c2ccccc2C1(C)C (centres unmarked) [Compound 12]
- Em. max ([1]; MeOH): 810 nm
- Em. max ([1]; water): 787 nm
- Abs. max ([2]; MeOH): 780 nm
- Abs. max ([2]; water): 768 nm

SMILES: CN1C2CCC1/C(=C\C=C1\N(CCCS(=O)(=O)O)c3ccc(S(=O)(=O)O)cc3C1(C)C)C(SCCC(=O)O)=C2/C=C/C1=[N+](CCCS(=O)(=O)O)c2ccc(S(=O)(=O)O)cc2C1(C)C (centres unmarked) [Compound 13]
- Em. max ([1]; MeOH): 810 nm
- Em. max ([1]; water): 797 nm
- Abs. max ([2]; MeOH): 788 nm
- Abs. max ([2]; water): 777 nm

SMILES: CCN1/C(=C/C=C2C(Cl)=C(/C=C/C3=[N+](CC)c4ccc5c(S(=O)(=O)O)cc(S(=O)(=O)O)cc5c4C3(C)C)C3CCC/2N3C)C(C)(C)c2c1ccc1c(S(=O)(=O)O)cc(S(=O)(=O)O)cc21 (centres unmarked) [Compound 38]
- Em. max ([1]; MeOH): 835 nm
- Em. max ([1]; water): 827 nm
- Abs. max ([2]; MeOH): 814 nm
- Abs. max ([2]; water): 805 nm

SMILES: CN1C2CCC1/C(=C\C=C1\N(CCCS(=O)(=O)O)c3ccc(S(=O)(=O)O)cc3C1(C)C)C(Cl)=C2/C=C/C1=[N+](CCCS(=O)(=O)O)c2ccc(S(=O)(=O)O)cc2C1(C)C (centres unmarked) [Compound 39]
- Em. max ([1]; MeOH): 802 nm
- Em. max ([1]; water): 788 nm
- Abs. max ([2]; MeOH): 780 nm
- Abs. max ([2]; water): 768 nm

Source: patent publication US9365721B2, “Polycyclo dyes and use thereof” (VISEN MEDICAL, INC., priority 2007, dated 2016)
